Test results published in US11634396B2 (priority 2021, dated 2023).

target: human mOR (Homo sapiens (Human), UniProt P35372); assay: cell-based; conditions: not given
Sequence (P35372 whole entry): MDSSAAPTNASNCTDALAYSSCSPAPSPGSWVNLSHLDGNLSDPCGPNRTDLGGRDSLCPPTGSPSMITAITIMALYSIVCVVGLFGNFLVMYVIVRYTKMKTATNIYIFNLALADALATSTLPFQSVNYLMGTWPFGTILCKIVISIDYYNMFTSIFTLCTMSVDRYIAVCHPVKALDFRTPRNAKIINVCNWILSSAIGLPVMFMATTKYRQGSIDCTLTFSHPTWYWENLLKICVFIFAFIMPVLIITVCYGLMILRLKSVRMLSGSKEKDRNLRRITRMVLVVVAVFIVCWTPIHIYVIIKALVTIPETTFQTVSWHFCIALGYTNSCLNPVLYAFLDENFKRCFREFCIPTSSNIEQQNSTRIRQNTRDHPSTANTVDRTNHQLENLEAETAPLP

Row | Compound | IC50
1 | CN(C)[C@H](CNC(=O)C[C@H](c1cccnc1)C1(C(F)(F)F)CC1)Cc1cc2cn[nH]c2cc1Cl [Compound 235, (R)-N-((S)-3-(6-chloro-1H-indazol-5-yl)-2-(dimethylamino)propyl)-3-(pyridin-3-yl)-3-(1-(trifluoromethyl)cyclopropyl)propanamide] | < 300 nM
2 | CN(C)[C@H](CNC(=O)C[C@H](c1cccnc1)C1(C(F)(F)F)CC1)Cc1cc(F)c(O)cc1F [Compound 238, (R)-N-((S)-3-(2,5-difluoro-4-hydroxyphenyl)-2-(dimethylamino)propyl)-3-(pyridin-3-yl)-3-(1-(trifluoromethyl)cyclopropyl)propanamide] | < 300 nM
3 | CN(C)[C@H](CNC(=O)C[C@H](c1ccncc1)C1CC1)Cc1c(F)cc(O)cc1F [Compound 239, (S)-3-cyclopropyl-N-((S)-3-(2,6-difluoro-4-hydroxyphenyl)-2-(dimethylamino)propyl)-3-(pyridin-4-yl)propanamide] | < 300 nM
4 | Cc1cc(O)cc(C)c1C[C@@H](CNC(=O)C[C@H](CC1CC1)c1cccnc1)N(C)C [Compound 241, (S)-4-cyclopropyl-N-((S)-2-(dimethylamino)-3-(4-hydroxy-2,6-dimethylphenyl)propyl)-3-(pyridin-3-yl)butanamide] | < 300 nM
5 | Cc1cc(O)cc(C)c1C[C@@H](CNC(=O)C[C@H](c1cccnc1)C1(C(F)(F)F)CC1)N(C)C [Compound 242, (R)-N-((S)-2-(dimethylamino)-3-(4-hydroxy-2,6-dimethylphenyl)propyl)-3-(pyridin-3-yl)-3-(1-(trifluoromethyl)cyclopropyl)propanamide] | < 300 nM
6 | Cc1cc(O)cc(C)c1C[C@@H](CNC(=O)C[C@@H](c1cccnc1)C1(C(F)(F)F)CC1)N(C)C [Compound 243, (S)-N-((S)-2-(dimethylamino)-3-(4-hydroxy-2,6-dimethylphenyl)propyl)-3-(pyridin-3-yl)-3-(1-(trifluoromethyl)cyclopropyl)propanamide] | < 300 nM
7 | COc1ccc(C(CC(=O)NC[C@H](Cc2c(C)cc(O)cc2C)N(C)C)C2(C(F)(F)F)CC2)cn1 (stereo partly drawn) [Compound 244, N-((S)-2-(dimethylamino)-3-(4-hydroxy-2,6-dimethylphenyl)propyl)-3-(6-methoxypyridin-3-yl)-3-(1-(trifluoromethyl)cyclopropyl) propanamide] | < 300 nM
8 | Cc1cc(O)cc(C)c1C[C@@H](CNC(=O)C[C@H](c1cncc(Cl)c1)C1(C(F)(F)F)CC1)N(C)C [Compound 245, (R)-3-(5-chloropyridin-3-yl)-N-((S)-2-(dimethylamino)-3-(4-hydroxy-2,6-dimethylphenyl)propyl)-3-(1-(trifluoromethyl)cyclopropyl)propanamide] | < 300 nM
9 | Cc1cc(O)cc(C)c1C[C@@H](CNC(=O)CC(c1ncc(Cl)cn1)C1(C(F)(F)F)CC1)N(C)C (stereo partly drawn) [Compound 246, 3-(5-chloropyrimidin-2-yl)-N-((S)-2-(dimethylamino)-3-(4-hydroxy-2,6-dimethylphenyl)propyl)-3-(1-(trifluoromethyl)cyclopropyl)propanamide] | < 300 nM
10 | Cc1cc(O)cc(C)c1C[C@@H](CNC(=O)CC(c1cncc(F)c1)C1(C(F)(F)F)CC1)N(C)C (stereo partly drawn) [Compound 247, N-((S)-2-(dimethylamino)-3-(4-hydroxy-2,6-dimethylphenyl)propyl)-3-(5-fluoropyridin-3-yl)-3-(1-(trifluoromethyl)cyclopropyl)propanamide] | < 300 nM
11 | Cc1cc(O)cc(C)c1C[C@@H](CNC(=O)CC(c1ccc(C(F)(F)F)nc1)C1(C(F)(F)F)CC1)N(C)C (stereo partly drawn) [Compound 249, N-((S)-2-(dimethylamino)-3-(4-hydroxy-2,6-dimethylphenyl)propyl)-3-(1-(trifluoromethyl)cyclopropyl)-3-(6-(trifluoromethyl)pyridin-3-yl)propanamide] | < 300 nM
12 | CC[C@H](CC(=O)NC[C@H](Cc1c(C)cc(O)cc1C)N(C)C)c1cnc(C)s1 [Compound 252, (R)-N-((S)-2-(dimethylamino)-3-(4-hydroxy-2,6-dimethylphenyl)propyl)-3-(2-methylthiazol-5-yl)pentanamide] | < 300 nM
13 | Cc1ncc([C@@H](CC(=O)NC[C@H](Cc2c(C)cc(O)cc2C)N(C)C)C2CC2)s1 [Compound 253, (S)-3-cyclopropyl-N-((S)-2-(dimethylamino)-3-(4-hydroxy-2,6-dimethylphenyl)propyl)-3-(2-methylthiazol-5-yl)propanamide] | < 300 nM
14 | Cc1ncc(C(CC(=O)NC[C@H](Cc2c(C)cc(O)cc2C)N(C)C)C2CC2)s1 (stereo partly drawn) [Compound 254, (S)-3-cyclopropyl-N-((S)-2-(dimethylamino)-3-(4-hydroxy-2,6-dimethylphenyl)propyl)-3-(2-methylthiazol-5-yl)propanamide] | < 300 nM
15 | CN(C)[C@H](CNC(=O)C[C@H](c1cccnc1)C1(C)CC1)Cc1ccc(O)cc1C(F)(F)F [Compound 256, (S)-N-((S)-2-(dimethylamino)-3-(4-hydroxy-2-(trifluoromethyl)phenyl)propyl)-3-(1-methylcyclopropyl)-3-(pyridin-3-yl)propanamide] | < 300 nM
16 | CN(C)[C@H](CNC(=O)C[C@H](c1cccnc1)C1(C(F)(F)F)CC1)Cc1ccc(O)c(F)c1Cl [Compound 257, (R)-N-((S)-3-(2-chloro-3-fluoro-4-hydroxyphenyl)-2-(dimethylamino)propyl)-3-(pyridin-3-yl)-3-(1-(trifluoromethyl)cyclopropyl)propanamide] | < 300 nM
17 | CN(C)[C@H](CNC(=O)C[C@H](c1ccncc1)C1CC1)Cc1ccc(O)c(F)c1Cl [Compound 258, (S)-N-((S)-3-(2-chloro-3-fluoro-4-hydroxyphenyl)-2-(dimethylamino)propyl)-3-cyclopropyl-3-(pyridin-4-yl)propanamide] | < 300 nM
18 | COc1ccc(C[C@@H](CNC(=O)C[C@H](c2cccnc2)C2(C(F)(F)F)CC2)N(C)C)c(Cl)c1F [Compound 259, (R)-N-((S)-3-(2-chloro-3-fluoro-4-methoxyphenyl)-2-(dimethylamino)propyl)-3-(pyridin-3-yl)-3-(1-(trifluoromethyl)cyclopropyl)propanamide] | > 3000 nM
19 | CN(C)[C@H](CNC(=O)C[C@H](CC1CC1)c1ccncc1)Cc1ccc(O)cc1Cl [Compound 260, (S)-N-((S)-3-(2-chloro-4-hydroxyphenyl)-2-(dimethylamino)propyl)-4-cyclopropyl-3-(pyridin-4-yl)butanamide] | < 300 nM
20 | CN(C)[C@H](CNC(=O)C[C@H](c1ccncc1)C1(C(F)(F)F)CC1)Cc1ccc(O)cc1Cl [Compound 261, (R)-N-((S)-3-(2-chloro-4-hydroxyphenyl)-2-(dimethylamino)propyl)-3-(pyridin-4-yl)-3-(1-(trifluoromethyl)cyclopropyl)propanamide] | < 300 nM
21 | CN(C)[C@H](CNC(=O)C[C@H](c1cccnc1)C1(C(F)(F)F)CC1)Cc1ccc(O)cc1Cl [Compound 262, (R)-N-((S)-3-(2-chloro-4-hydroxyphenyl)-2-(dimethylamino)propyl)-3-(pyridin-3-yl)-3-(1-(trifluoromethyl)cyclopropyl)propanamide] | < 300 nM
22 | Cc1cc(O)ccc1C[C@@H](CNC(=O)C[C@H](c1cncs1)C1CC1)N(C)C [Compound 264, (S)-3-cyclopropyl-N-((S)-2-(dimethylamino)-3-(4-hydroxy-2-methylphenyl)propyl)-3-(thiazol-5-yl)propanamide] | < 300 nM
23 | Cc1cc(O)ccc1C[C@@H](CNC(=O)C[C@H](c1ccoc1)C1(C(F)(F)F)CC1)N(C)C [Compound 265, (R)-N-((S)-2-(dimethylamino)-3-(4-hydroxy-2-methylphenyl)propyl)-3-(furan-3-yl)-3-(1-(trifluoromethyl)cyclopropyl)propanamide] | < 300 nM
24 | Cc1ccc([C@@H](CC(=O)NC[C@H](Cc2ccc(O)cc2C)N(C)C)C2(C(F)(F)F)CC2)o1 [Compound 266, (S)-N-((S)-2-(dimethylamino)-3-(4-hydroxy-2-methylphenyl)propyl)-3-(5-methylfuran-2-yl)-3-(1-(trifluoromethyl)cyclopropyl) propanamide] | < 300 nM
25 | Cc1cc(O)ccc1C[C@@H](CNC(=O)C[C@H](c1cncs1)C1(C(F)(F)F)CC1)N(C)C [Compound 268, (S)-N-((S)-2-(dimethylamino)-3-(4-hydroxy-2-methylphenyl)propyl)-3-(thiazol-5-yl)-3-(1-(trifluoromethyl)cyclopropyl)propanamide] | < 300 nM

same assay, conditions: CHO Tag-lite human mOR stable cell line; forskolin 4 μM and DAMGO at EC90; read-out: mOR cAMP Antagonist Assay IC50

Row | Compound | IC50
26 | Cc1ncc([C@@H](CC(=O)NC[C@H](Cc2cc3cn[nH]c3cc2Cl)N(C)C)C2(C(F)(F)F)CC2)cn1 [Compound 233, (R)-N-((S)-3-(6-chloro-H-indazol-5-yl)-2-(dimethylamino)propyl)-3-(2-methylpyrimidin-5-yl)-3-(1-(trifluoromethyl)cyclopropyl) propanamide] | < 300 nM
27 | CN(C)[C@H](CNC(=O)C[C@H](c1ccncc1)C1(C(F)(F)F)CC1)Cc1cc2cn[nH]c2cc1Cl [Compound 234, (R)-N-((S)-3-(6-chloro-H-indazol-5-yl)-2-(dimethylamino)propyl)-3-(pyridin-4-yl)-3-(1-(trifluoromethyl)cyclopropyl)propanamide] | < 300 nM
28 | CN(C)[C@H](CNC(=O)C[C@@H](c1cccnc1)C1(C(F)(F)F)CC1)Cc1ccc2[nH]ncc2c1 [Compound 237, (S)-N-((S)-2-(dimethylamino)-3-(1H-indazol-5-yl)propyl)-3-(pyridin-3-yl)-3-(1-(trifluoromethyl)cyclopropyl)propanamide] | < 300 nM
29 | Cc1cc(O)cc(C)c1C[C@@H](CNC(=O)C1CC1c1ncccn1)N(C)C (stereo partly drawn) [Compound 248, N-((S)-2-(dimethylamino)-3-(4-hydroxy-2,6-dimethylphenyl)propyl)-2-(pyrimidin-2-yl)cyclopropane-1-carboxamide] | 300 to 3000 nM
30 | Cc1cc(O)cc(C)c1C[C@@H](CNC(=O)C[C@H](C)c1ccc(Cl)cc1)N(C)C [Compound 250, (S)-3-(4-chlorophenyl)-N-((S)-2-(dimethylamino)-3-(4-hydroxy-2,6-dimethylphenyl)propyl)butanamide] | 300 to 3000 nM
